Measured values as given in publication PMC4373589 (Journal of medicinal chemistry, 2013).

Legend:
KOR = conditions: cited from earlier work
[1] = target: T1, delta opioid receptor (DOR) (Mus musculus, UniProt P32300); assay: DOR competitive radioligand binding; set-up: species or system mice
antinociception = assay: Warm-water tail flick assay, acute agonist effect; conditions: up to 30 mg/kg dose; s.c.
mu opioid receptor (MOR) = mu opioid receptor (MOR) (Mus musculus, UniProt P42866); assay: MOR competitive radioligand binding; set-up: species or system mice
[2] = target: T2, kappa opioid receptor (KOR) (Mus musculus, UniProt P33534); assay: KOR [35S]-GTPγS binding assay
morphine dependent mice = assay: Opioid withdrawal assay in morphine-pelleted mice; format: in vivo; conditions: for Escape jumps, effect of dose / Wet dog shakes, effect of dose: increasing dose up to 30 mg/kg s.c.; for Precipitated withdrawal symptoms, overall comparison: morphine-pelleted mice, s.c.; for Wet dog shakes at 30 mg/kg: 30 mg/kg s.c., compared with 1 mg/kg naloxone and naltrexone
[3] = target: T1, delta opioid receptor (DOR); assay: DOR [35S]-GTPγS binding assay
[4] = target: T2, kappa opioid receptor (KOR); assay: biochemical; format: binding, mice
morphine antinociception = assay: Warm-water tail flick assay, antagonism of morphine antinociception; format: in vivo; conditions: antagonizing morphine (10 mg/kg) antinociception; s.c.; six mice

T1 sequence (P32300 whole entry): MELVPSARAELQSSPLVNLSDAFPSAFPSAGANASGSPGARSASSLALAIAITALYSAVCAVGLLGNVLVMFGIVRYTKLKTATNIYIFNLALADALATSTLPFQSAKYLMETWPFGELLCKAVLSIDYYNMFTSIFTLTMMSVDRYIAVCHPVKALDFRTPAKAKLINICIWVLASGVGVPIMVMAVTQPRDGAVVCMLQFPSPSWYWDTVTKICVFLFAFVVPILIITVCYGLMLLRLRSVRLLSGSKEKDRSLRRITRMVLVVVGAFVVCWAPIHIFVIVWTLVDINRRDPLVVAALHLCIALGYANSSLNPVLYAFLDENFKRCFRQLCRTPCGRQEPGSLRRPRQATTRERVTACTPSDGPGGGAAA
T2 sequence (P33534 whole entry): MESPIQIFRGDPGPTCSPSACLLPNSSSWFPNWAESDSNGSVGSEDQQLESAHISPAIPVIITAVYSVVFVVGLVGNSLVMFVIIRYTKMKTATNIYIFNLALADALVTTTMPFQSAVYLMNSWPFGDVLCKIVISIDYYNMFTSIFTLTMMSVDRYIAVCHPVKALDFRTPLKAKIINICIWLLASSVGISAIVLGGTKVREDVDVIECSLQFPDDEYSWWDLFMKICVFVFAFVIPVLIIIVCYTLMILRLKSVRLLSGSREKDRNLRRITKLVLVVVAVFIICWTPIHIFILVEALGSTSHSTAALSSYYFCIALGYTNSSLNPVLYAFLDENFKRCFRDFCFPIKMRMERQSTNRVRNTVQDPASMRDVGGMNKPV
Sequence of mu opioid receptor (MOR) (P42866 whole entry): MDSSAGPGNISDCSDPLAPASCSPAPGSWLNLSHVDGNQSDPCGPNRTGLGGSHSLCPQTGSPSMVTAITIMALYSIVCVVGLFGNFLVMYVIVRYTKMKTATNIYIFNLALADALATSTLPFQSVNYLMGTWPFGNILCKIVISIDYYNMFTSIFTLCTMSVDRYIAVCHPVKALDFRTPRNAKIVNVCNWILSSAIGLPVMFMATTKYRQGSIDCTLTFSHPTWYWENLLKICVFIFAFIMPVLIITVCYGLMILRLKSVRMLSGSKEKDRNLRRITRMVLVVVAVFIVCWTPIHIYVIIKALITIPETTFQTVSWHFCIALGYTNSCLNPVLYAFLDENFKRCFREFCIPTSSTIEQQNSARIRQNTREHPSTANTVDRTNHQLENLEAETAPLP

SMILES | Emax (KOR partial agonist) (KOR) | Ki [1] | Agonist effect in tail flick assay (antinociception) | Ki (mu opioid receptor (MOR)) | EC50 [2] | Wet dog shakes at 3 mg/kg (morphine dependent mice; 3 mg/kg s.c.) | Wet dog shakes at 10 mg/kg (morphine dependent mice; 10 mg/kg s.c., same level at 30 mg/kg) | Wet dog shakes at high doses (morphine dependent mice; 10 and 30 mg/kg s.c., compared with 1 mg/kg naloxone) | Escape jumps, effect of dose (morphine dependent mice) | Precipitated withdrawal symptoms, overall comparison (morphine dependent mice) | EC50 [3] | Ki [4] | Wet dog shakes at 30 mg/kg (morphine dependent mice) | Wet dog shakes, effect of dose (morphine dependent mice) | AD50 values (mg/kg (95% CL)) (morphine antinociception)
Oc1cccc2c1O[C@H]1CCC[C@H]3CN(CC4CC4)CC[C@@]231 [LTC-274, (-)-3-cyclopropylmethyl-2,3,4,4α,5,6,7,7α-octahydro-1H-benzofuro[3,2-e]isoquinolin-9-ol] | 23% |  |  |  |  |  |  |  |  |  |  |  |  |  | 
O=C(N[C@@]12CCC(=O)[C@@H]3Oc4c(O)ccc5c4[C@@]31CCN(CC1CC1)[C@@H]2C5)c1ccccn1 [Compound 10, 17-cyclopropylmethyl-4,5α-epoxy-3-hydroxy-14β-N-[(2’-pyridyl)carboxamido]morphinan-6-one] |  | 94.5 ± 6.5 nM | None of the compounds produced any significant agonist effect | 1.51 ± 0.34 nM | 1.74 ± 0.5 nM | minimal number of wet dog shakes | dramatic increase | still lower than that of 1 mg/kg naloxone | clear decrease of escape jumps as its dose increased (not significantly though) | less severe withdrawal symptoms than naloxone at high doses | 19.7 ± 7.4 nM | 0.36 ± 0.01 nM |  |  | 
O=C(N[C@@]12CCC(=O)[C@@H]3Oc4c(O)ccc5c4[C@@]31CCN(CC1CC1)[C@@H]2C5)c1cc2ccccc2cn1 [Compound 14, 17-cyclopropylmethyl-4,5α-epoxy-3-hydroxy-14β-N-[(3’-isoquinolyl)carboxamido]-morphinan-6-one] |  | 25.1 ± 1.8 nM | None of the compounds produced any significant agonist effect | 3.5 ± 1.87 nM | 2.75 ± 0.71 nM |  |  |  | no significant dose-response effect | behaved similarly to naltrexone | 14.2 ± 1.9 nM | 0.27 ± 0.02 nM | resembled the effect of 1 mg/kg naloxone and naltrexone | dose-response increasing effect | 
C=CCN1CC[C@]23c4c5ccc(O)c4O[C@H]2C(=O)CC[C@@]3(O)[C@H]1C5 [Naloxone, naloxone, reference compound] |  |  |  |  |  |  |  |  |  | even more significant syndrome |  |  |  |  | 0.05 (0.03-0.09) mg/kg
O=C(N[C@@]12CCC(=O)[C@@H]3Oc4c(O)ccc5c4[C@@]31CCN(CC1CC1)[C@@H]2C5)c1cccnc1 [Compound 11, 17-cyclopropylmethyl-4,5α-epoxy-3-hydroxy-14β-N-[(3’-pyridyl)carboxamido]morphinan-6-one] |  | 39.9 ± 0.5 nM | None of the compounds produced any significant agonist effect | 0.75 ± 0.28 nM | 0.56 ± 0.06 nM |  |  |  | dose-response increasing effect | behaved similarly to naltrexone | 3.2 ± 2 nM | 0.16 ± 0.01 nM | resembled the effect of 1 mg/kg naloxone and naltrexone | dose-response increasing effect | 
